Measured values taken from paper PMC11882969 (Nature Communications, 2025).
Several values for one entry are separate records, joined by “and”; a condition that tells them apart may be missing. Identical values can stand only once.

Experiments:
[1] = biological target: T1, hCB1 (Homo sapiens, UniProt P21554); experiment: bioSensAll ebBRET signaling profiling, hCB1; format: cell-based; parameters: host or cells: HEK293SL cells, transient PEI transfection; conditions: for EC50: read-out: EC50 [95% CI]; for Emax: normalized to CP-55,940
T1 sequence (P21554 whole entry): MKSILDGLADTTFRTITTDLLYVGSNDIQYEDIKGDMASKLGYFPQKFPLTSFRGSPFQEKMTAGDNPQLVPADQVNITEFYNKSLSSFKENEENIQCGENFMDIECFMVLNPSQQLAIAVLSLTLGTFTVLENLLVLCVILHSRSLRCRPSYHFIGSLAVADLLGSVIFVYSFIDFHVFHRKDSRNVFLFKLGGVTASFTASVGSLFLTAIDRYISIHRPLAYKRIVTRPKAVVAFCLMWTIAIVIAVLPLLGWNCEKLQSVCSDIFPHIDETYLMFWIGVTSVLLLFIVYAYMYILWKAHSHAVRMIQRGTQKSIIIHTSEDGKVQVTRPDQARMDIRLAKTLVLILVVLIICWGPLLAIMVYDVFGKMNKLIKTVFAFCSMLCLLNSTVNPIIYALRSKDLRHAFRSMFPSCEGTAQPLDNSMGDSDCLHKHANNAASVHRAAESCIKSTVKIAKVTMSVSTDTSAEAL

[2] = biological target: CB1 (rCB1) (Rattus norvegicus, UniProt P20272); experiment: Radioligand competition binding, [3H]-CP-55,940, rat brain membranes
CB1 (rCB1), sequence (P20272 whole entry): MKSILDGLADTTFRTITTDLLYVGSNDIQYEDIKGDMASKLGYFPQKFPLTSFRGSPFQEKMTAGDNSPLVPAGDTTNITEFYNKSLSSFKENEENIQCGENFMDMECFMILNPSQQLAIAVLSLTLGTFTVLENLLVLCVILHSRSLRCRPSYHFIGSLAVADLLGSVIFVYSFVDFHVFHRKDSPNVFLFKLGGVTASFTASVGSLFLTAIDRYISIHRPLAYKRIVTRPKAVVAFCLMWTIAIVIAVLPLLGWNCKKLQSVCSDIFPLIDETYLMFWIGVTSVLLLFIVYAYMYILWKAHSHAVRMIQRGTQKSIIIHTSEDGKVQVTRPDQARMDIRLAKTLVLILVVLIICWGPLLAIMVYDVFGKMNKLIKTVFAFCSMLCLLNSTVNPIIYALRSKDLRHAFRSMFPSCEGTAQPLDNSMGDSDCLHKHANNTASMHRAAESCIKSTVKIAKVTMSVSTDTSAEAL

[3] = biological target: T1, hCB1; experiment: Tango β-arrestin-2 recruitment, HTLA cells, CB1R; format: cell-based; parameters: expressed in transfected cells; host or cells: HTLA cells (gift of R. Axel), transient transfection
[4] = biological target: hCB2 (Homo sapiens, UniProt P34972); experiment: TRUPATH BRET2 GoA dissociation, HEK293T; format: cell-based; parameters: expressed in transfected cells; host or cells: HEK293T cells (ATCC: CRL-3216), transient co-transfection; conditions: for functional response, concentration-response point (FigS7e, normalized): Log[drug], replicate columns
hCB2, sequence (P34972 whole entry): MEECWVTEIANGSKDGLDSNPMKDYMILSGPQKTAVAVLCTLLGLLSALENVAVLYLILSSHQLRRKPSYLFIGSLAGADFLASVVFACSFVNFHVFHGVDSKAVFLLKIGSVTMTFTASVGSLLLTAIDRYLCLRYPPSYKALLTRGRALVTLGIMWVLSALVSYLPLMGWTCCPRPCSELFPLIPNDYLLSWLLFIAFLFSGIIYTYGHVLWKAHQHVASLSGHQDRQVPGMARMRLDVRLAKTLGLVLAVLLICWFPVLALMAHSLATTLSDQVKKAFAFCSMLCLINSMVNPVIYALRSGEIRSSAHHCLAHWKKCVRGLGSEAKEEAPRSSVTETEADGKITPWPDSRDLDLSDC

## COC(=O)C(C)(NC(=O)c1cc(C)n(-c2cccc(C(F)(F)F)c2)n1)c1cccs1 (centres unmarked) [‘4042]
[1]; hCB1 G13
  EC50: 2.1 nM
[1]; hCB1 G15
  EC50: 0.37 nM
[1]; hCB1 GoB
  EC50: 0.64 nM
[1]; hCB1 Gz
  EC50: 0.43 nM
[1]; read-out: Emax [95% CI], hCB1 Barr2 + GRK2
  Emax: 72%
[1]; read-out: Emax [95% CI], hCB1 G13
  Emax: 64%
[1]; read-out: Emax [95% CI], hCB1 G15
  Emax: 105%
[1]; read-out: Emax [95% CI], hCB1 Gi2
  Emax: 101%
[1]; read-out: Emax [95% CI], hCB1 GoB
  Emax: 103%
[1]; read-out: Emax [95% CI], hCB1 Gz
  Emax: 97%
[2]; rCB1
  pKi [95% CI]: 8.7 [8.6 – 8.9]
[2]; read-out: Ki [95% CI], rCB1, [3H]-CP-55,940
  Ki: 1.9 nM and 1.86 nM
[3]; HTLA, hCB1, read-out: Tango ß-arrestin recruitment Emax
  Emax: 102%
[3]; Log[drug], M = -4.52
  response, replicate values of concentration-response curve (FigS7f): 7.067 and -6.331 and 5.4951 and 8.221 and 8.314 and -13.0772 and 26.9747 and 17.871 and 12.4553 and 121.329 and 105.672 and 117.884
[3]; Log[drug], M = -5
  response, replicate values of concentration-response curve (FigS7f): -3.086 and 3.974 and -30.8966 and 0.657 and 12.6131 and 6.151 and 33.0168 and 23.9031 and -6.308 and 64.2077 and 47.075 and 77.367
[3]; Log[drug], M = -5, individual replicates
  response at Log[drug], M -5 (FigS4e): 105.219 and 109.279 and 117.533 and 125.309 and 97.6126 and 107.099 and 99.9992 and 108.6 and 92.9311 and 106.141 and 96.6922 and 121.582
[3]; Log[drug], M = -5.52
  response, replicate values of concentration-response curve (FigS7f): -43.7244 and -3.669 and 10.2865 and 56.4831 and 26.3341 and 31.5757 and 34.4515 and 25.7521 and 21.276 and 49.6996 and 52.3788 and 22.9617
[3]; Log[drug], M = -5.52, individual replicates
  response at Log[drug], M -5.52 (FigS4e): 101.394 and 114.732 and 120.488 and 108.55 and 90.8381 and 89.995 and 132.472 and 109.506 and 88.5962 and 99.4965 and 84.8551 and 98.2296
[3]; Log[drug], M = -6
  response, replicate values of concentration-response curve (FigS7f): 45.905 and 18.3989 and 8.994 and 37.6798 and 48.3885 and 1.626 and 39.9683 and 51.123 and 11.4551 and 62.3486 and 38.1624 and 52.7798
[3]; Log[drug], M = -6, individual replicates
  response at Log[drug], M -6 (FigS4e): 110.2 and 110.608 and 113.923 and 102.851 and 70.7652 and 82.3944 and 91.1468 and 90.7286 and 85.6996 and 85.6798 and 84.3272 and 95.3395
[3]; Log[drug], M = -6.52
  response, replicate values of concentration-response curve (FigS7f): 48.7063 and 31.7717 and 10.7428 and 2.793 and 31.788 and 27.608 and 19.4978 and 35.1184 and 41.787 and 72.0632 and 23.3444 and 56.7531
[3]; Log[drug], M = -6.52, individual replicates
  response at Log[drug], M -6.52 (FigS4e): 101.401 and 93.7884 and 111.126 and 102.386 and 76.6593 and 76.4337 and 80.9673 and 77.6716 and 90.47 and 82.2224 and 76.8121 and 78.3428
[3]; Log[drug], M = -7
  response, replicate values of concentration-response curve (FigS7f): 45.8923 and 39.1109 and -32.4811 and 3.271 and 1.931 and -6.456 and 21.6196 and 13.8396 and 19.3159 and 108.005 and 18.4598 and 4.043
[3]; Log[drug], M = -7, individual replicates
  response at Log[drug], M -7 (FigS4e): 101.996 and 90.2881 and 92.9617 and 98.4638 and 67.7319 and 66.2817 and 76.3076 and 71.3692 and 69.3631 and 70.7817 and 73.5528 and 86.8411
[3]; Log[drug], M = -7.52
  response, replicate values of concentration-response curve (FigS7f): 6.205 and 16.8525 and 13.7723 and 78.1261 and 25.2327 and 15.4263 and 3.028 and 19.2351 and -2.458 and 66.2308 and 22.6883 and 80.2832
[3]; Log[drug], M = -7.52, individual replicates
  response at Log[drug], M -7.52 (FigS4e): 85.8169 and 81.0399 and 77.0438 and 77.8353 and 74.3661 and 62.598 and 69.4576 and 65.014 and 61.4855 and 54.8485 and 65.2396 and 54.8221
[3]; Log[drug], M = -8, individual replicates
  response at Log[drug], M -8 (FigS4e): 64.9332 and 70.1108 and 76.4142 and 63.9273 and 43.1923 and 49.5865 and 49.0423 and 55.5064 and 60.3508 and 56.2009 and 53.2123 and 59.8164
[3]; Log[drug], M = -8.52, individual replicates
  response at Log[drug], M -8.52 (FigS4e): 34.3417 and 29.1931 and 35.2401 and 27.4328 and 27.4461 and 34.6615 and 20.0846 and 24.5419 and 29.6463 and 23.9316 and 26.0874 and 20.4241
[3]; Log[drug], M = -9, individual replicates
  response at Log[drug], M -9 (FigS4e): 11.2308 and 14.9426 and 16.0188 and 14.8879 and 7.81 and 6.201 and 6.046 and 5.165 and 11.416 and 8.011 and 9.8505 and 11.4417
[3]; Log[drug], M = -9.52
  response, replicate values of concentration-response curve (FigS7f): -8.017 and 13.4427 and 7.219 and 1.3736
[3]; Log[drug], M = -9.52, individual replicates
  response at Log[drug], M -9.52 (FigS4e): 4.318 and 6.954 and 4.569 and 9.019 and 2.48 and 0.9701 and 1.146 and -0.2947 and 2.2712 and 3.563 and 2.22 and 2.613
[3]; Log[drug], M = -10
  response, replicate values of concentration-response curve (FigS7f): -5.634 and 19.8566 and -6.166 and -19.951 and 12.6927 and 1.918 and 26.5806 and 27.9648 and -15.2597 and 16.5278 and -42.7439 and -28.9284
[3]; Log[drug], M = -10, individual replicates
  response at Log[drug], M -10 (FigS4e): 4.678 and 4.596 and 5.116 and 5.805 and 0.4668 and 1.099 and -0.9271 and 0.03226 and 4.179 and 1.0137 and 3.024 and 3.033
[3]; Log[drug], M = -10.52, individual replicates
  response at Log[drug], M -10.52 (FigS4e): 3.333 and 5.039 and 5.463 and 7.136 and 2.136 and 1.073 and 1.405 and 1.689 and 0.06416 and 3.135 and 1.262 and 0.6116
[3]; Log[drug], M = -11, individual replicates
  response at Log[drug], M -11 (FigS4e): 2.02 and 1.728 and 3.648 and 1.714 and 2.136 and 0.5313 and 2.282 and 1.392 and 2.442 and 2.186 and 2.656 and 2.784
[3]; Log[drug], M = -11.52, individual replicates
  response at Log[drug], M -11.52 (FigS4e): 0.1596 and 0.8162 and 2.015 and 2.59 and 0.7808 and -0.157 and 2.17 and 1.37 and 0.3122 and 1.493 and -1.27 and 0.3892
[3]; Log[drug], M = -12, individual replicates
  response at Log[drug], M -12 (FigS4e): -1.281 and 1.1992 and 0.1003 and -0.01824 and -0.4194 and -1.323 and 0.4797 and 1.263 and -0.586 and -0.201 and 1.578 and -0.7913
[3]; hCB1
  Tango ß-arrestin recruitment pEC50: 8.0 [7.9 – 8.1]
[3]; hCB1, read-out: Tango ß-arrestin recruitment EC50
  EC50: 10.7 nM
[4]
  BRET2 + GoA pEC50: 8.1 [7.4 – 8.8]
[4]; HEK-293T
  Emax: 29%
[4]; M = -5.52
  functional response, concentration-response point (FigS7e, normalized): 35.163 and 34.5195 and 37.1398 and 45.2359 and 22.1885 and 20.0253 and 22.0647 and 22.44 and 27.1274 and 29.7176 and 29.0627 and 31.2724
[4]; M = -6
  functional response, concentration-response point (FigS7e, normalized): 29.7877 and 33.9492 and 29.5334 and 25.2255 and 15.8228 and 16.2963 and 15.9211 and 20.153 and 25.0506 and 24.2718 and 28.0892 and 24.4694
[4]; M = -6.52
  functional response, concentration-response point (FigS7e, normalized): 26.0116 and 28.0846 and 25.607 and 31.5062 and 14.9093 and 14.0547 and 17.0527 and 13.1077 and 21.8115 and 21.8852 and 20.2922 and 24.9916
[4]; M = -7
  functional response, concentration-response point (FigS7e, normalized): 24.1274 and 22.8405 and 29.7761 and 21.8695 and 14.0743 and 11.9997 and 13.5282 and 12.4358 and 19.7258 and 19.481 and 19.1064 and 19.4486
[4]; M = -7.52
  functional response, concentration-response point (FigS7e, normalized): 23.5957 and 22.9137 and 20.3707 and 18.5906 and 11.4339 and 9.937 and 10.3691 and 10.8406 and 16.0355 and 14.8408 and 13.0297 and 14.2214
[4]; M = -8
  functional response, concentration-response point (FigS7e, normalized): 12.8343 and 12.3797 and 11.0928 and 9.008 and 8.006 and 4.9629 and 4.745 and 4.187 and 11.3719 and 9.991 and 9.086 and 7.272
[4]; M = -8.52
  functional response, concentration-response point (FigS7e, normalized): 3.796 and 2.717 and 4.595 and 4.6603 and 1.822 and 2.459 and 1.412 and 2.158 and 3.296 and 4.616 and 3.0209 and 3.939
[4]; M = -11.52
  functional response, concentration-response point (FigS7e, normalized): -0.1711 and -0.00125 and 0.5633 and 1.428
[4]; M = -12
  functional response, concentration-response point (FigS7e, normalized): 0.1237 and -0.6757 and -0.301 and 0.8531 and -0.1904 and 0.4719 and -0.17 and -0.1114 and 0.2132 and -0.01243 and 0.1138 and -0.3146
